Here are results for 5 molecules from ChEMBL document CHEMBL1201862, “PubChem BioAssay data set” (2004).

Molecules are shown by their SMILES.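 96-well plates; 48 h exposure; 5 concentrations. Endpoints by linear interpolation between flanking doses. Not reached: highest tested concentration assigned. GI50 is the concentration that inhibits growth by half.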 Calls of active or inactive are those of the source. Cut-off read from the data, not from the text of the source: active = GI50 up to about 1.1 µM and inactive = higher.

Holding throughout (experiment): NCI-60 cell line screen, 48 h
For assay [1], the system named is MOLT-4.
For assay [2], the system named is HCT-15.
Assay [3] concerns UACC-62.
Assay [4] deals with 786-0.
The subject of assay [5] is M14.
Assay [6] relates to NCI-H226.
Assay [7] has as its system SK-OV-3.
Assay [8] deals with U-251.
The subject of assay [9] is OVCAR-5.
The subject of assay [10] is SN12C.
Assay [11] has as its system HOP-92.
Assay [12] concerns SW-620.
For assay [13], the system named is OVCAR-8.
The test system of assay [14] is LOX IMVI.
For assay [15], the system named is SF-295.
Assay [16] relates to TK-10.

Take `CC(=O)OC1CCC2C(=CCC3C2(C)C(=O)CC2(C)C(C4(C)OC(C(C)C)=CC4=O)C(O)CC32C)C1(C)C` (stereo unspecified): the GI50 in [1] is 32.4 µM (inactive); in assay [2], 30.2 µM; in assay [3], 19.1 µM (inactive); in assay [4], > 100 µM (inactive); in assay [5], 23.3 µM (inactive); in [6], 75 µM (inactive). The GI50 in [7] is 35.7 µM (inactive); in assay [8] it was 39.4 µM (inactive); in assay [9], > 100 µM (inactive); in assay [10], 54.5 µM (inactive); in assay [11], 41.3 µM (inactive); in [12], 41 µM (inactive). Moreover, the GI50 in assay [13] was 43.7 µM (inactive).

On to `Cc1cc(C)nc(NS(=O)(=O)c2ccc(Nc3c4ccccc4nc4c(C(=O)Nc5ccc(S(N)(=O)=O)cc5)cccc34)cc2)n1`, for which the GI50 in assay [1] was > 100 µM (inactive); in [2] it was 47.1 µM; in assay [3], 66.1 µM (inactive); in assay [4], > 100 µM (inactive); in [5], 71.6 µM (inactive); in assay [7], 11.8 µM (inactive). In addition, the GI50 in assay [8] was 58.3 µM (inactive); in assay [9], > 100 µM (inactive); in assay [10], > 100 µM (inactive); in assay [14], 75.9 µM (inactive); in assay [11] it was 30.9 µM (inactive); in [12], > 100 µM (inactive). Besides, the values for the GI50 in [13], in [15] and in [16] were > 100 µM (inactive), > 100 µM (inactive) and > 10 µM (inactive), respectively.

Turning to `COc1cc(/C=C/c2ccncc2)cc(OC)c1OC`, the GI50 was 65.8 µM (inactive) in assay [1]; 49.4 µM in [2]; 67.1 µM (inactive) in [3]; 72.4 µM (inactive) in [4]; > 100 µM (inactive) in assay [5]; > 100 µM (inactive) in [6]. Moreover, the GI50 is > 100 µM (inactive) in assay [8]; 38.8 µM (inactive) in assay [9]; 96.2 µM (inactive) in assay [10]; 72.4 µM (inactive) in [14]; 29.9 µM (inactive) in assay [11]; > 100 µM (inactive) in [12]. Also, the GI50 in assay [13] was > 100 µM (inactive); in [15], > 100 µM (inactive); in [16], 41 µM (inactive).

Turning to `OC1(C(Sc2ccccc2)Sc2ccccc2)CCCCCC1`, the GI50 in assay [1] is 28.6 µM (inactive); in assay [2] it was 24.4 µM; in [3], 11.5 µM (inactive); in assay [4], 22.4 µM (inactive); in assay [5], 18.7 µM (inactive); in assay [7], 22.5 µM (inactive). Besides, the GI50 was 21.8 µM (inactive) in assay [8]; 16.2 µM (inactive) in assay [10]; 19.3 µM (inactive) in [14]; 28.6 µM (inactive) in [11]; 26.2 µM (inactive) in assay [12]; 38.8 µM (inactive) in [13]. In addition, the GI50 was 26.8 µM (inactive) in [15] and 58.2 µM (inactive) in [16].

For the molecule `CCc1cccc(C(C)C)c1NC(=O)CCl`, the GI50 in assay [1] was > 100 µM (inactive); in assay [2], > 100 µM; in assay [3] it was 45.1 µM (inactive); in assay [4], > 100 µM (inactive); in assay [5] it was 46.3 µM (inactive); in [6], > 100 µM (inactive). Besides, the GI50 in assay [7] was > 100 µM (inactive); in assay [8], 85.1 µM (inactive); in assay [10], > 100 µM (inactive); in assay [14] it was 80.7 µM (inactive); in assay [11], > 100 µM (inactive); in assay [12], > 100 µM (inactive). The GI50 in assay [15] and in assay [16] was > 100 µM (inactive) in each case.
